In patent US11684595B2, “Characterization of the oral microbiome for the non-invasive diagnosis of Barrett's esophagus” (The Trustees of Columbia University in the City of New York, priority 2017, dated 2023):

Assays:
Type in all cases: in vivo, human
[1] = tested on: culturable bacteria in the esophagus; experiment: Culture of esophageal brushings on TSA plates with 5% sheep blood after two weeks of mouth rinse (randomized trial)
Description: A randomized controlled trial of chlorhexidine antimicrobial mouth rinse study was conducted in patients scheduled to undergo upper endoscopy. It is postulated that the microbiome may play a role in the development of various esophageal and other upper gastrointestinal diseases such as Barrett's esophagus and esophageal cancer. The microbiome of the upper gastrointestinal tract is heavily influenced by migration of bacteria from the mouth via swallowed secretions. Therefore, it stands to reason that altering the oral microbiome can directly impact the microbiome of the esophagus and gastric cardia. Chlorhexidine mouth rinse (i.e. an antiseptic oral rinse) effectively alters levels of many bacteria in the mouth, including anaerobes and species that are not easily cultured, and also has anti-inflammatory effects. A randomized open-label pilot study was performed to test this hypothesis that use of an antimicrobial mouth rinse alters the microbiome of the lower esophagus and gastric cardia.
(§1) The enrolled subjects were those already scheduled for upper endoscopy for clinical indications. • Subjects were randomized 1:1 to receive 0.12% chlorhexidine mouth rinse or no treatment. • Antimicrobial mouth rinse was used twice daily for two weeks leading up to the endoscopy. The two-week time frame was chosen as a practical end-point for the clinical study, and treatment can be for any desired period of time, i.e. to obtain the desired microbiome mix. • Baseline sample collection: Saliva, oral swab. • Samples collected at follow-up (day of endoscopy): Saliva, oral swab, esophageal brushings, gastric cardia brushings.
(§2) Patients scheduled to undergo upper endoscopy were randomized to treatment with chlorhexidine 0.12% mouth rinse or no mouth rinse for two weeks leading up to the endoscopy. Oral samples (swabs and saliva) were collected at baseline and after two weeks. During the endoscopy, brushings of the esophagus and of the gastric cardia were collected to sample the microbiome.
An interim analysis was performed on the esophageal brushings collected during upper endoscopy. Approximately one half of the bacteria in the esophagus can be readily cultured. Thus, it was hypothesized that a change in the amount of culturable bacteria (either increased or decreased) would reflect a change in the proportion of culturable:non-culturable bacteria in the esophagus. Samples from the first 14 subjects (8 controls not using mouth rinse, 6 subjects using chlorhexidine mouth rinse) were collected, and solutions were prepared from these samples. The samples were then plated onto trypticase soy agar (TSA) plates with 5% sheep blood and incubated for 18 hours at 37° C.

[2] = tested on: salivary microbiome; experiment: 16S rRNA gene sequencing of saliva, randomized trial of antimicrobial mouth rinse; details: LEfSe
Description: as §1, §2
16 S rRNA gene sequencing was performed on all of the biosamples. The V3-V4 hypervariable region for all samples was sequenced using the Illumina HiSeq 2500 in Rapid Mode with 2×300 bp read length (Illumina, San Diego, Calif.). The Greengenes reference database was used. Taxonomic units were clustered at 97% sequence similarity using USEARCH and taxonomic assignments were made using mothur. […]

[3] = tested on: esophageal microbiome; experiment: 16S rRNA gene sequencing of esophageal brushings, randomized trial of antimicrobial mouth rinse
Description: as §1, §2
16 S rRNA gene sequencing was performed on all of the biosamples. The V3-V4 hypervariable region for all samples was sequenced using the Illumina HiSeq 2500 in Rapid Mode with 2×300 bp read length (Illumina, San Diego, Calif.). The Greengenes reference database was used. Taxonomic units were clustered at 97% sequence similarity using USEARCH and taxonomic assignments were made using mothur. A phylogenetic tree of the contigs was generated with FastTree version 2.1.7.
In order to determine whether chlorhexidine alters the esophageal microbiome, a comparison of the microbiome composition from esophageal samples was performed, comparing the treatment and no treatment arms.

[4] = 0.12% mouth rinse twice daily for two weeks before endoscopy, n = 6, plated on TSA, 18 hours at 37° C.

SMILES: [H]/N=C(\N/C(=N/[H])NCCCCCCNC(=N)NC(=N)Nc1ccc(Cl)cc1)Nc1ccc(Cl)cc1 [Chlorhexidine, chlorhexidine]
- Mean (SE) CFU/mL from esophageal brushings collected at endoscopy [1, 4]: 56,433 (42,654) CFU/mL
- Mean (SE) number of colonies from esophageal brushings collected at endoscopy [1, 4]: 282 (213)
- numbers of culturable bacteria (colonies and CFU/mL) in the esophagus compared to no chlorhexidine rinse ([1]; FIGS. 3A-B): increased numbers of culturable bacteria
- increase in growth of culturable bacteria compared to the arm not receiving mouth rinse ([1]; esophageal brushings, 6 subjects using rinse vs 8 controls): 68%
- taxonomic changes in salivary microbiome after treatment compared to baseline ([2]; 2 weeks' treatment, FIG. 4A): Numerous taxa were altered
- differences in salivary microbiome at follow-up versus no treatment in phylum Firmicutes and species Haemophilus parainfluenzae ([2]; follow-up, FIG. 4B): large differences were seen
- beta diversity analysis of esophageal microbiome, clustering by treatment group ([3]; FIG. 5): significant clustering by treatment group
- esophageal microbiome composition compared to patients receiving no treatment ([3]; FIGS. 5-6): markedly distinct
- relative abundance of Haemophilus in the esophageal microbiome ([3]; vs no treatment arm, FIG. 6): significantly decreased
- relative abundance of Streptococcus in the esophageal microbiome ([3]; vs no treatment arm, FIG. 6): increased
